For data set [1], the system named is M. tuberculosis H37Rv (ATCC 27294). Type of data set: cell-based, Mycobacterium tuberculosis. As to conditions: one day (24 h) exposure to the Cmax of the drug (rifampicin 8 µg/ml, moxifloxacin 4 µg/ml, amikacin 8 µg/ml), compared with control without drug.
The conditions of data set [2]: species not given; cited from earlier work.

`NCC[C@H](O)C(=O)N[C@@H]1C[C@H](N)[C@@H](O[C@H]2O[C@H](CN)[C@@H](O)[C@H](O)[C@H]2O)[C@H](O)[C@H]1O[C@H]1O[C@H](CO)[C@@H](O)[C@H](N)[C@H]1O` [amikacin]: the “rate of CP^• formation” value in data set [1] was “quite high rate”. Also, the “Cmax value (maximum drug concentration in serum)” value (shortened to “Cmax value”) in data set [2] was 8000 ng/mL. `COc1c(N2C[C@@H]3CCCN[C@@H]3C2)c(F)cc2c(=O)c(C(=O)O)cn(C3CC3)c12` [moxifloxacin]: in data set [2], the “Cmax value” value was 4000 ng/mL. Consider `CO[C@H]1/C=C/O[C@@]2(C)Oc3c(C)c(O)c4c(O)c(c(/C=N/N5CCN(C)CC5)c(O)c4c3C2=O)NC(=O)/C(C)=C\C=C\[C@H](C)[C@H](O)[C@@H](C)[C@@H](O)[C@@H](C)[C@H](OC(C)=O)[C@@H]1C` [rifampicin], for which the “Cmax value” value in data set [2] was 8000 ng/mL.

The values above are taken from patent publication EP2982983B1, “METHOD FOR DRUG SUSCEPTIBILITY TESTING OF MYCOBACTERIUM TUBERCULOSIS BY ELECTRON PARAMAGNETIC RESONANCE” (priority 2014, dated 2016).
